The source of these data is patent publication US20240216339A1, “METHODS OF TREATING NEUROPSYCHIATRIC DISORDERS” (GILGAMESH PHARMACEUTICALS, INC., priority 2021, published 2024).

Assay [1] concerns C57BL/6 mice. The experiment in a line: Head twitch response (HTR) to 4-HO-MET after vehicle or daridorexant pre-treatment. The settings on record: 4-HO-MET 0.32-3.2 mg/kg s.c.; vehicle (0.5% methylcellulose) pretreatment; 20 min period; FIG. 5. It is filed as in vivo, mouse. On the procedure: Administration of 5-HT2A receptor agonists in mice induces a robust head twitch response (HTR). The number of head twitches observed in mice is recognized as an indicator of the degree of psychedelic effects (Halberstadt et al 2020). To determine whether the HTR induced by 5-HT2A receptor agonists is modulated by dual orexin receptor antagonists, a study was performed comparing the HTR induced by a 5-HT2A receptor agonist, 4-hydroxy-N-methyl-N-ethyltryptamine (4-HO-MET), after pre-treatment with either vehicle or the dual orexin receptor antagonist daridorexant.
Male C57BL/6 mice (˜6-8 Week; Hylasco, Hyderabad, India) were pair-housed under standard conditions on a 12-h light cycle with free access to food and water. On the test day, mice were randomly assigned to one of 6 treatment groups (see Table 1 below). Mice were dosed orally with 0.5% methylcellulose or daridorexant at t=−30 min followed by a subcutaneous (s.c.) injection of 4-HO-MET (0.32, 1, or 3.2 mg/kg) at t=0 min. Mice were then immediately placed in a chamber and the number of head twitches in a 20 min period post 4-HO-MET injection (t=0-20 min) were counted manually by a blinded, trained observer.

The test system of assay [2] is individuals. The note with it: anecdotal; individuals who fell asleep while taking LSD; more than 12 hours after the dose; cited from earlier work.
Assay [3] concerns sleep-wake behaviour in Sprague Dawley rats. The experiment in a line: EEG/EMG sleep-wake study of daridorexant, psilocybin and their combination. It is filed as in vivo, rat. The protocol: The aim of this study was to investigate the effects of daridorexant, psilocybin, and the combination of the two compounds, on sleep-wake behaviour in Sprague Dawley rats, across the circadian cycle. Daridorexant is a dual orexin receptor antagonist used for treating insomnia. Psilocybin is a 5-HT2A receptor agonist with psychedelic properties and relatively short half-life. The study was conducted at Transpharmation, UK, under Study IDs EEG079a and EEG079c.
8 male Sprague Dawley rats (Charles River, UK) were used in the study. Animals were housed in groups of 2-3 with standard conditions. Average weight at start of dosing was 433-517 g, corresponding to ˜ 14 weeks old.
The animals were anaesthetised with isoflurane (2-5% in oxygen at 1 L/min) throughout the procedure. The scalp, neck, and right flank were cleared of hair using clippers and cleaned using diluted Hibitane (50% (v/v) in water). A non-steroidal anti-inflammatory agent was administered (Carprofen 5 mg/kg, subcutaneously (s.c.)) and the animals placed on a homeothermic blanket (37° C.) with the head fixed in a stereotaxic frame. Incisions were made in the scalp and neck, as well as in the right flank. Blunt dissection of the abdominal muscle was then made to gain access to the peritoneal cavity. A radio transmitter (HD-S02, Data Sciences International) was implanted in the peritoneal cavity and secured to the muscle wall with non-absorbable sutures. The wires of the transmitter were passed using a 16 G needle through the muscle wall and then sub-dermally to the scalp to act as EEG/EMG electrodes. The scalp was cleared of connective tissue and two craniotomies were made with a trepanning drill (fronto-parietal coordinates; Bregma+2 mm anterior, midline+1.0 mm lateral, and Lambda 0 mm, +1.5 mm lateral). The positive EEG electrode was attached to the anterior craniotomy and the negative EEG electrode to the posterior craniotomy. Both electrodes were secured in place using a suitable adhesive agent (cyanoacrylate gel, RS components). A second set of electrodes were sutured into the nuchal muscle to act as EMG electrodes. All incisions were closed using absorbable suture.
All animals were allowed to recover in a warm environment and given 5 mL of saline s.c. Animals were kept singly in the cage until the next day, then pair housed for the duration of post-surgical recovery (minimum 7 days). During the recovery period the rats received 5 days of standard post-operative care with no further experimental procedures until the pre-operative body weight was regained. The animals were maintained on a 12/12 h light-dark cycle (08:00 am lights on) after the surgery.
On study days, at ˜30 min after lights-on, animals were placed in recording boxes similar to their home cages and data acquisition was begun for confirmation of signal quality. After 30 min, each animal was briefly removed from its box to be dosed (see schedule below). Animals were immediately put back into the recording boxes, the experimenter left the room, and recordings continued uninterrupted for ˜23 h. At the end of the recording session, the transmitters were turned off and the animals were returned to their home cages. Animals received treatment conditions in a pseudo randomised cross-over fashion with a minimum period of 7 days between doses.
Daridorexant was administered p.o. at a volume of 5 mL/kg with 0.5% methylcellulose vehicle (Vehicle 1), at doses of 30 mg/kg or 100 mg/kg. Psilocybin was administered s.c. at a volume of 3 mL/kg with saline vehicle (Vehicle 2), at doses of 0.5 mg/kg, 1 mg/kg, or 3 mg/kg.
EEG, EMG, and locomotor activity data were acquired for ˜23 h post dosing using intraperitoneal HD-S02 transmitters (DSI, New Brighton, MN) and Spike2 software (CED, Cambridge UK). EEG/EMG signals were amplified, analogue filtered (0.5-100 Hz), digitized (256 Hz), and then digitally filtered (EEG: 0.5-100 Hz and EMG: 70-100 Hz). […]

The subject of assay [4] is major depressive disorder (MDD). The note with it: cited from earlier work.
The subject of assay [5] is patients with major depressive disorder (MDD). The settings on record: discontinued Phase II study; cited from earlier work.
[6] abbreviates: first 4 h after dosing, daridorexant at both 30 and 100 mg/kg p.o., FIG. 1B.

`CCN(C)CCc1c[nH]c2cccc(O)c12` [4-HO-MET, 4-hydroxy-N-methyl-N-ethyltryptamine]: the “number of head twitches (HTR)” value in assay [1] is on record as “produced HTR in a dose-dependent manner”.

With `CCN(CC)C(=O)[C@@H]1C=C2c3cccc4[nH]cc(c34)C[C@H]2N(C)C1` [LSD, lysergic acid diethylamide], in assay [2], the “next day creativity and vigor” value is “next day enhanced creativity and vigor”.

With `COc1ccc(-n2nccn2)c(C(=O)N2CCC[C@@]2(C)c2nc3c(C)c(Cl)ccc3[nH]2)c1` [daridorexant], in assay [3] (first 2 h after dosing, daridorexant alone 30, 100 mg/kg, FIG. 3A), the “percentage of time spent in Wake across 22 h” value was “wakefulness reduction”. Moreover, the “percentage of time spent in NREM across 22 h” value in assay [3] (first 2 h after dosing, daridorexant alone 30, 100 mg/kg, FIG. 3B) is “promotion of NREM and REM sleep”. Moreover, in assay [3] (first 2 h after dosing, daridorexant alone 30, 100 mg/kg, FIG. 3C), the “percentage of time spent in REM across 22 h” value is “promotion of NREM and REM sleep”. In assay [3] (setting [6]), the “percentage of time spent in Wake” value is “acutely reduced wakefulness for the first 2 h after dosing” and the “percentage of time spent in sleep (NREM, REM)” value was “promoting sleep, especially NREM sleep”. In addition, in assay [3] (psilocybin 1, 3 mg/kg, daridorexant 30, 100 mg/kg, combinations D100+P1, D30+P1, FIG. 2A), the “REM sleep onset latency” value was “dose-dependent decrease”. In addition, the “NREM sleep onset latency” value in assay [3] (psilocybin 1, 3 mg/kg, daridorexant 30, 100 mg/kg, combinations D100+P1, D30+P1, FIG. 2B) is given as “reduction”.

Turning to `Cc1cc(C)nc(N2CC3CN(C(=O)c4c(F)cccc4-n4nccn4)CC3C2)n1` (stereo not drawn) [seltorexant, Seltorexant], in assay [4] (compared to placebo), the “(left posterior) EEG power” value is “overall increase”; the “delta power during stage 2 sleep” value was “relative increase”; the “theta, alpha, and beta power during stage 2 sleep” value is “decrease”. For the same compound, the “antidepressant efficacy with continued treatment” value in assay [4] (continued treatment up to 28 days) was “maintained”. Further, the “core depressive symptoms compared to placebo” value in assay [4] (ten days of treatment, seen at day 11) was “significant improvement”.

Regarding `Cc1ccc(-c2ncccn2)c(C(=O)N2C[C@H](COc3ccc(F)cn3)CC[C@H]2C)c1` [filorexant], the “separation from placebo in MDD” value in assay [5] is “did not separate from placebo”.
